In the CheMixHub viscosity set:

Assay: xn = mol fraction of the nth substance listed

Nc1ccccc1 + COCCO
303.15 K, 101 kPa
Conditions | viscosity [mPa·s]
x1 = 0.0881 | 2.156
x1 = 0.1786 | 2.351
x1 = 0.2716 | 2.555
x1 = 0.3671 | 2.757
x1 = 0.4652 | 2.955
x1 = 0.5661 | 3.129
x1 = 0.67 | 3.284
x1 = 0.7768 | 3.437
x1 = 0.8867 | 3.591

ClCc1ccccc1 + COCCOC
298.15 K, 101 kPa
Conditions | viscosity [mPa·s]
x2 = 0.135 | 1.176
x2 = 0.2599 | 1.026
x2 = 0.3758 | 0.908
x2 = 0.4836 | 0.807
x2 = 0.5841 | 0.716
x2 = 0.6781 | 0.635
x2 = 0.7662 | 0.564
x2 = 0.8489 | 0.506
x2 = 0.9267 | 0.453

ClCc1ccccc1 + COc1ccccc1
303.15 K, 101 kPa
Conditions | viscosity [mPa·s]
x2 = 0.1045 | 1.245
x2 = 0.1911 | 1.362
x2 = 0.304 | 1.438
x2 = 0.4094 | 1.466
x2 = 0.5182 | 1.45
x2 = 0.6162 | 1.394
x2 = 0.7196 | 1.3
x2 = 0.8053 | 1.192
x2 = 0.9137 | 1.061

CC(C)(C)O + CS(C)=O
viscosity [mPa·s], 101.3 kPa
Conditions | x2 = 0.095 | x2 = 0.1916 | x2 = 0.289 | x2 = 0.3874 | x2 = 0.5132 | x2 = 0.5873 | x2 = 0.6888 | x2 = 0.7916 | x2 = 0.8951
298.15 K | 3.564 | 2.968 | 2.53 | 2.269 | 2.07 | 2.005 | 1.917 | 1.902 | 1.971
303.15 K | 2.644 | 2.111 | 1.808 | 1.608 | 1.479 | 1.459 | 1.531 | 1.568 | 1.719

CNC + CS(C)=O
303.15 K, 101 kPa
Conditions | viscosity [mPa·s]
x2 = 0.061 | 2.067
x2 = 0.1207 | 2.133
x2 = 0.2361 | 2.207
x2 = 0.4518 | 2.373
x2 = 0.6496 | 2.207
x2 = 0.8318 | 1.939

Nc1ccccc1 + CS(C)=O
viscosity [mPa·s], 101 kPa
Conditions | 298.15 K | 302.4 K | 308.15 K | 318.15 K
x2 = 0.0786 | – | 5.806 | – | –
x2 = 0.1 | 3.83 | – | 2.841 | 2.194
x2 = 0.2 | 3.94 | – | 2.925 | 2.259
x2 = 0.2281 | – | 3.998 | – | –
x2 = 0.3 | 3.99 | – | 2.98 | 2.3
x2 = 0.4 | 3.938 | – | 2.958 | 2.294
x2 = 0.4344 | – | 4.788 | – | –
x2 = 0.5 | 3.756 | – | 2.839 | 2.232
x2 = 0.5614 | – | 5.863 | – | –
x2 = 0.6 | 3.445 | – | 2.644 | 2.106
x2 = 0.6809 | – | 6.538 | – | –
x2 = 0.7 | 3.055 | – | 2.397 | 1.938
x2 = 0.8 | 2.664 | – | 2.134 | 1.746
x2 = 0.8473 | – | 6.37 | – | –
x2 = 0.9 | 2.313 | – | 1.886 | 1.529
